US20260374792A1, “PHENYL-FREE BISCATIONIC QUATERNARY PHOSPHONIUM COMPOUNDS AS ANTIMICROBIAL AGENTS” (priority 2022, published 2026)

Legend:
established biofilm = test: Biofilm eradication (MBEC) over the strains tested; format: cell-based; conditions: pegged-lid microtiter plate assay
Experimental: (§1) A regrowth assay was used to establish the MBEC of a compound to evaluate the antibiofilm activity.
Biofilm eradication experiments were performed using a pegged-lid microtiter plate assay to determine the MBEC values for compounds of interest, as previously described. […] Sci. Rep. 2017, 7, 2003; and Raval, Y. S., Flurin, L., Mohamed, A., Greenwood-Quaintance, K. E., Beyenal, H., & Patel, R. In Vitro Activity of Hydrogen Peroxide and Hypochlorous Acid Generated by Electrochemical Scaffolds Against Planktonic and Biofilm Bacteria. Antimicrob Agents Chemother. 2021, 65, e01966-20. Briefly, […] of mid-log phase culture diluted to ca. 10^6 CFU/mL in tryptic soy broth (TSB) was added to wells of plat-bottom 96-well plates (Thermo Scientific, 266120) and covered with 96-pegged lid (Thermo Scientific, 445497). […] MBEC values were determined as the lowest test concentration that resulted eradicated biofilm (i.e., wells displaying no turbidity in the final plate).
Pleased by the activity of the phosphonium compounds, the inventors sought to further investigate the antibacterial properties while comparing the effects of the heteroatom on activity. To do so, the inventors determined the minimum biofilm eradication concentration (MBEC) of bisQPC ^MeP2P-12,12 and analogous bisQAC 12(2)12 using a pegged-lid microtiter plate assay.

E. faecalis (OG1RF) = test: MIC against E. faecalis; format: cell-based; conditions: Enterococcus faecalis, 72 h
Experimental: (§2) The term “minimum inhibitory concentration (MIC)” means the lowest concentration of an antimicrobial agent that will inhibit the visible growth of a microorganism after overnight incubation. MIC values against bacteria, for example, the Gram-positive Staphylococcus aureus and Enterococcus faecalis and the Gram-negative Escherichia coli and Pseudomonas aeruginosa were determined by standard methods. See also P. A. Wayne, Methods for Dilution Antimicrobial Tests for Bacteria that Grow Aerobically; Approved Standard, Ninth Edition, 2012, CLSI Document M07-A9, Vol. 32 No. 2.
(§3) Biological testing procedures were adapted from prior work by Melander and coworkers. For all biological assays, laboratory strains of methicillin-susceptible Staphylococcus aureus MSSA (SH1000), Staphylococcus aureus CA-MRSA (USA300-0114), Staphylococcus aureus HA-MRSA (ATCC 33591), Escherichia coli (MC4100), Enterococcus faecalis (OG1RF), Acinetobacter baumannii (ATCC 17978), were grown with shaking at 37 °C overnight from freezer stocks in 5 mL of the indicated media: SH1000, OG1RF, MC4100, USA300-0114, and ATCC 17978 were grown in BDTM Mueller-Hinton broth (MHB), whereas ATCC 33591 was grown in BDTM tryptic soy broth (TSB). The inoculum were then streaked onto Mueller-Hinton agar (MHA) plates and grown overnight at 37 °C. From the plates, single colonies were selected, diluted into 50 mL of fresh media and grown overnight at 37 °C with shaking for use in the MIC assays. Optical density (OD) measurements were obtained using a SpectraMax iD3 plate reader (Molecular Devices, United States).
(§4) Compounds were serially diluted two-fold from stock solutions (1.0 mM) to yield twelve 100 μL test concentrations, wherein the starting concentration of dimethyl sulfoxide (DMSO) was 2.5%. Overnight S. aureus, E. faecalis, E. coli, A. baumannii, USA300-0114 (CA-MRSA), and ATCC 33591 (HA-MRSA) cultures were diluted to ca. 10^6 CFU/mL in MHB or TSB and regrown to mid-exponential phase, as determined by optical density recorded at 600 nm (OD600). All cultures were then diluted again to ca. 10^6 CFU/mL and 100 μL were inoculated into each well of a U-bottom 96-well plate (Corning, 351177) containing 100 μL of compound solution. Plates were incubated statically at 37 °C for 72 hours upon which wells were evaluated visually for bacterial growth. The MIC was determined as the lowest concentration of compound resulting in no bacterial growth visible to the naked eye, based on the highest value in three independent experiments. Aqueous DMSO controls were conducted as appropriate for each compound.
(§5) The prepared library of biscationic amphiphilic compounds was assessed for performance as antibacterial disinfectants by determining the minimum inhibitory concentration (MIC) for each against a panel of bacteria. The bacteria selected for the study were chosen to evaluate the broad spectrum antimicrobial performance of the QPCs, and therefore, included both Gram-positive and Gram-negative bacterial strains, including those with known antimicrobial resistance mechanisms. These bacteria include the Gram-positive strains of methicillin-susceptible Staphylococcus aureus [MSSA; SH1000], community-acquired methicillin-resistant Staphylococcus aureus [CA-MRSA; USA 300-0114], hospital-acquired methicillin-resistant Staphylococcus aureus [HA-MRSA; ATCC 33591] and the […], Escherichia coli [MC4100], Acinetobacter baumannii [ATCC 17498] and Pseudomonas aeruginosa [PAO1].

MSSA (SH1000) = test: MIC against methicillin-susceptible S. aureus (MSSA); format: cell-based; conditions: Staphylococcus aureus; MSSA (SH1000); 72 hours, 37 °C; read-out: MIC
Experimental: as §2, §3, §4, §5

P. aeruginosa (PAO1) = test: MIC against P. aeruginosa; format: cell-based; conditions: Pseudomonas aeruginosa; P. aeruginosa (PAO1); 72 hours, 37 °C; read-out: MIC
Experimental: as §2, §3, §4, §5

A. baumannii = test: MBEC, biofilm eradication, A. baumannii; format: cell-based, Acinetobacter baumannii; conditions: 24 hours, 37 °C, TSB
Experimental: as §1
Biofilm eradication experiments were performed using a pegged-lid microtiter plate assay to determine the MBEC values for compounds of interest, as previously described. […] Sci. Rep. 2017, 7, 2003; and Raval, Y. S., Flurin, L., Mohamed, A., Greenwood-Quaintance, K. E., Beyenal, H., & Patel, R. In Vitro Activity of Hydrogen Peroxide and Hypochlorous Acid Generated by Electrochemical Scaffolds Against Planktonic and Biofilm Bacteria. Antimicrob Agents Chemother. 2021, 65, e01966-20. Briefly, […] of mid-log phase culture diluted to ca. 10^6 CFU/mL in tryptic soy broth (TSB) was added to wells of plat-bottom 96-well plates (Thermo Scientific, 266120) and covered with 96-pegged lid (Thermo Scientific, 445497). Plates were incubated to establish bacterial biofilms after incubation at 37 °C for 24 hours. The pegged lid was then removed, washed with PBS, and transferred to another 96-well plate containing 2-fold serial dilutions of the test compounds (the “challenge plate”). The total volume in each well was […], comprising of […] of compound diluted in water/DMSO, with a starting DMSO concentration of 2.5%, and […] of TSB. Plates were incubated statically at 37 °C for 24 hours. Next, the pegged lids were transferred to a fresh 96-well plate containing […] of TSB and incubated overnight at 37 °C. MBEC values were determined as the lowest test concentration that resulted eradicated biofilm (i.e., wells displaying no turbidity in the final plate).

With `CCCCCCCCCCCC[N+](C)(C)CC[N+](C)(C)CCCCCCCCCCCC` [12(2)12, reference compound] the “ability to eradicate established biofilm (in words)” value (established biofilm) was “ability to eradicate established biofilm against three of the strains tested”, the MIC (E. faecalis (OG1RF)) was 8 µM and the MIC (MSSA (SH1000)) was 2 µM. For the same molecule, the MIC (P. aeruginosa (PAO1)) was 8 µM and the MBEC (A. baumannii) was 4 µM.

With `CCCCCCCCCCCC[P+](C)(C)CC[P+](C)(C)CCCCCCCCCCC` [^MeP2P-12,12] the “ability to eradicate established biofilm (in words)” value (established biofilm) was “ability to eradicate established biofilm against three of the strains tested”, the MIC (E. faecalis (OG1RF)) was 4 µM and the MIC (MSSA (SH1000)) was 2 µM. It also gave an MIC (P. aeruginosa (PAO1)) of 8 µM and an MBEC (A. baumannii) of 8 µM.
